We go through 11 compounds from the supplement of paper PMC8976852.

Molecules are shown by their SMILES. ± gives the standard deviation of the averaged measurements.

What all share (experiment): activity (1 - area under the dose-response curve within the screened range) (fraction); higher = more sensitive
Settings in all cases: treatment time: 72 h

The subject of one experiment is HCM-SANG-0532-C20 (colorectal cancer organoid). The method, then: (§1)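 Patient-derived cancer organoids (colorectal and oesophageal, HCM-SANG models) were grown for up to 6 months in 5% or 80% ECM (BME-2), then seeded in 384-well plates on an ECM layer and treated with 72 compounds for 3 days. Each compound used a 7-point half-log dilution series spanning a 1000-fold range, in technical triplicate and biological duplicate. Dose-response curves were fitted with a non-linear mixed effects model; fits with RMSE > 0.3 were removed, and activity = 1 - AUC within the screened dose range (0 = no activity, 1 = maximum).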

In the next experiment the test system is HCM-SANG-0270-C20 (colorectal cancer organoid). As to the method:
as §1

A further experiment relates to HCM-SANG-0266-C20 (colorectal cancer organoid). As to the method: as §1
For the next experiment, the system named is HCM-SANG-0291-C15 (oesophageal cancer organoid). As to the method:
as §1

Where [1] appears, read: ECM percentage in culture prior to screening 5 %.
[2] abbreviates: ECM percentage in culture prior to screening 80 %.

Consider `NC(=O)Nc1cc(-c2cccc(F)c2)sc1C(=O)N[C@H]1CCCNC1` [AZD7762], for which the activity with HCM-SANG-0532-C20 (setting [1]) was found to be 0.14 ± 0.056; in the experiment on HCM-SANG-0532-C20 (setting [2]) it was 0.177 ± 0.035; in the experiment with HCM-SANG-0270-C20 (setting [1]), 0.23 ± 0.049; with HCM-SANG-0270-C20 (setting [2]), 0.199 ± 0.05; in the experiment on HCM-SANG-0266-C20 (setting [1]), 0.287 ± 0.041; in the experiment on HCM-SANG-0266-C20 (setting [2]), 0.232 ± 0.029. In addition, the activity in the experiment with HCM-SANG-0291-C15 (setting [1]) worked out at 0.269 ± 0.016; in the experiment with HCM-SANG-0291-C15 (setting [2]), 0.248 ± 0.043.
On to `O=C(O)C1(C(=O)O)CCC1.[NH2-].[NH2-].[Pt+2]` [Carboplatin], for which the activity is 0.0573 ± 0.015 in the experiment with HCM-SANG-0532-C20 (setting [1]); 0.0352 ± 0.013 in the experiment on HCM-SANG-0532-C20 (setting [2]); 0.0338 ± 0.02 in the experiment on HCM-SANG-0270-C20 (setting [1]); 0.0325 ± 0.013 in the experiment with HCM-SANG-0270-C20 (setting [2]); 0.0268 ± 0.0076 with HCM-SANG-0266-C20 (setting [1]); 0.0392 ± 0.024 in the experiment on HCM-SANG-0266-C20 (setting [2]). Further, the activity with HCM-SANG-0291-C15 (setting [1]) came to 0.0362 ± 0.017; in the experiment on HCM-SANG-0291-C15 (setting [2]) it was 0.0271 ± 0.011.
Take `CN(C)C(=O)c1cc2cnc(Nc3ccc(N4CCNCC4)cn3)nc2n1C1CCCC1` [Ribociclib]: the activity in the experiment with HCM-SANG-0532-C20 (setting [1]) is 0.0436 ± 0.036; in the experiment with HCM-SANG-0532-C20 (setting [2]), 0.0301 ± 0.0069; in the experiment with HCM-SANG-0270-C20 (setting [1]), 0.046 ± 0.028; with HCM-SANG-0270-C20 (setting [2]), 0.0291 ± 0.019; in the experiment with HCM-SANG-0266-C20 (setting [1]), 0.0335 ± 0.011; in the experiment on HCM-SANG-0266-C20 (setting [2]), 0.0512 ± 0.053. In addition, the activity came out at 0.0289 ± 0.0084 in the experiment with HCM-SANG-0291-C15 (setting [1]) and 0.0323 ± 0.016 with HCM-SANG-0291-C15 (setting [2]).
For the compound `C[C@@]1(C(=O)Nc2ccc(F)nc2)CCCN1c1nc(Nc2cc(C3CC3)n[nH]2)c2cccn2n1`, the activity was 0.279 ± 0.091 with HCM-SANG-0532-C20 (setting [1]); 0.302 ± 0.035 in the experiment with HCM-SANG-0532-C20 (setting [2]); 0.18 ± 0.086 in the experiment with HCM-SANG-0270-C20 (setting [1]); 0.22 ± 0.11 in the experiment on HCM-SANG-0270-C20 (setting [2]); 0.455 ± 0.056 in the experiment on HCM-SANG-0266-C20 (setting [1]); 0.41 ± 0.056 in the experiment on HCM-SANG-0266-C20 (setting [2]). Moreover, the activity in the experiment with HCM-SANG-0291-C15 (setting [1]) came to 0.126 ± 0.039; in the experiment with HCM-SANG-0291-C15 (setting [2]), 0.172 ± 0.056.
As for `Cn1cc(C2=C(c3ccc(Cl)cc3Cl)C(=O)NC2=O)c2ccccc21`, the activity in the experiment with HCM-SANG-0532-C20 (setting [1]) stood at 0.0778 ± 0.033; in the experiment on HCM-SANG-0532-C20 (setting [2]), 0.0951 ± 0.05; in the experiment with HCM-SANG-0270-C20 (setting [1]), 0.0629 ± 0.02; in the experiment with HCM-SANG-0270-C20 (setting [2]), 0.0482 ± 0.021; in the experiment with HCM-SANG-0266-C20 (setting [1]) it was 0.0916 ± 0.037; in the experiment on HCM-SANG-0266-C20 (setting [2]) it was 0.0697 ± 0.056. For the same compound, the activity with HCM-SANG-0291-C15 (setting [1]) came out at 0.0549 ± 0.019; in the experiment with HCM-SANG-0291-C15 (setting [2]), 0.0522 ± 0.022.
Regarding `O=c1cc(N2CCOCC2)oc2c(-c3cccc4c3sc3ccccc34)cccc12` [NU7441], the activity with HCM-SANG-0532-C20 (setting [1]) was 0.124 ± 0.045; in the experiment on HCM-SANG-0532-C20 (setting [2]), 0.119 ± 0.022; in the experiment with HCM-SANG-0270-C20 (setting [1]), 0.0446 ± 0.03; in the experiment with HCM-SANG-0270-C20 (setting [2]) it was 0.0686 ± 0.032; in the experiment on HCM-SANG-0266-C20 (setting [1]), 0.104 ± 0.032; in the experiment on HCM-SANG-0266-C20 (setting [2]) it was 0.063 ± 0.018. Besides, the activity in the experiment on HCM-SANG-0291-C15 (setting [1]) was determined as 0.0932 ± 0.037; in the experiment with HCM-SANG-0291-C15 (setting [2]), 0.0809 ± 0.029.
For `Nc1ccn([C@@H]2O[C@H](CO)[C@@H](O)C2(F)F)c(=O)n1` [Gemcitabine], the activity in the experiment with HCM-SANG-0532-C20 (setting [1]) came to 0.247 ± 0.042; with HCM-SANG-0532-C20 (setting [2]), 0.423 ± 0.04; in the experiment with HCM-SANG-0270-C20 (setting [1]), 0.337 ± 0.13; in the experiment on HCM-SANG-0270-C20 (setting [2]), 0.234 ± 0.17; in the experiment on HCM-SANG-0266-C20 (setting [1]), 0.624 ± 0.097; in the experiment with HCM-SANG-0266-C20 (setting [2]), 0.465 ± 0.13. The activity with HCM-SANG-0291-C15 (setting [1]) stood at 0.813 ± 0.021; in the experiment on HCM-SANG-0291-C15 (setting [2]) it was 0.801 ± 0.049.
For the compound `Cn1nnc2c(C(N)=O)ncn2c1=O` [Temozolomide], the activity in the experiment on HCM-SANG-0532-C20 (setting [1]) was 0.0253 ± 0.0078; in the experiment with HCM-SANG-0532-C20 (setting [2]), 0.024 ± 0.0046; in the experiment with HCM-SANG-0270-C20 (setting [1]) it was 0.028 ± 0.013; in the experiment with HCM-SANG-0270-C20 (setting [2]), 0.0261 ± 0.0071; in the experiment on HCM-SANG-0266-C20 (setting [1]), 0.0575 ± 0.021; in the experiment with HCM-SANG-0266-C20 (setting [2]), 0.0651 ± 0.031. Besides, the activity in the experiment on HCM-SANG-0291-C15 (setting [1]) came to 0.02 ± 0.0034; in the experiment on HCM-SANG-0291-C15 (setting [2]), 0.0234 ± 0.0089.
Turning to `COc1cc2c(Nc3ccc(NC(=O)c4ccccc4)cc3)ncnc2cc1OCCCN1CCOCC1`, the activity in the experiment on HCM-SANG-0532-C20 (setting [1]) was 0.184 ± 0.07; with HCM-SANG-0532-C20 (setting [2]), 0.166 ± 0.022; in the experiment on HCM-SANG-0270-C20 (setting [1]), 0.102 ± 0.054; with HCM-SANG-0270-C20 (setting [2]), 0.106 ± 0.06; with HCM-SANG-0266-C20 (setting [1]), 0.228 ± 0.027; in the experiment on HCM-SANG-0266-C20 (setting [2]) it was 0.212 ± 0.038. Besides, the activity was determined as 0.0708 ± 0.031 in the experiment on HCM-SANG-0291-C15 (setting [1]) and 0.0657 ± 0.034 in the experiment with HCM-SANG-0291-C15 (setting [2]).
As for `CC(C)C[C@H](NC(=O)[C@H](Cc1ccccc1)NC(=O)c1cnccn1)B(O)O` [Bortezomib], the activity with HCM-SANG-0532-C20 (setting [1]) is 0.201 ± 0.028; with HCM-SANG-0532-C20 (setting [2]), 0.212 ± 0.031; in the experiment with HCM-SANG-0270-C20 (setting [1]) it was 0.16 ± 0.023; with HCM-SANG-0270-C20 (setting [2]), 0.167 ± 0.03; in the experiment with HCM-SANG-0266-C20 (setting [1]) it was 0.201 ± 0.023; in the experiment with HCM-SANG-0266-C20 (setting [2]) it was 0.228 ± 0.015. Also, the activity with HCM-SANG-0291-C15 (setting [1]) worked out at 0.208 ± 0.027; in the experiment with HCM-SANG-0291-C15 (setting [2]), 0.234 ± 0.034.
On to `CS(=O)(=O)CCNCc1ccc(-c2ccc3ncnc(Nc4ccc(OCc5cccc(F)c5)c(Cl)c4)c3c2)o1` [Lapatinib], for which the activity in the experiment with HCM-SANG-0532-C20 (setting [1]) was 0.143 ± 0.069; in the experiment on HCM-SANG-0532-C20 (setting [2]), 0.205 ± 0.052; in the experiment on HCM-SANG-0270-C20 (setting [1]), 0.157 ± 0.057; in the experiment with HCM-SANG-0270-C20 (setting [2]), 0.106 ± 0.073; in the experiment with HCM-SANG-0266-C20 (setting [1]), 0.21 ± 0.071; in the experiment on HCM-SANG-0266-C20 (setting [2]), 0.132 ± 0.082. Besides, the activity in the experiment on HCM-SANG-0291-C15 (setting [1]) amounted to 0.207 ± 0.045; with HCM-SANG-0291-C15 (setting [2]), 0.189 ± 0.022.
